In patent US7998958B2, “Substituted N-arylsulfonylheterocyclic amines as gamma-secretase inhibitors” (Schering Corporation, priority 2004, dated 2011):

Tested on: gamma-secretase
Assay: Gamma-secretase activity in membranes of 293 cells expressing C99 (SPC99-Ion), Aβ 40 / Aβ 42 by ECL immunoassay
Assay type: biochemical
Conditions: gamma-secretase membrane assay; single values listed after 'within the range of about 1 nM to about 25 nM, i.e.'
Method: Gamma-secretase activity was determined as described by Zhang et al. (Biochemistry, 40 (16), 5049-5055, 2001), which is herein incorporated by reference. Activity is expressed either as a percent inhibition or as the concentration of compound producing 50% inhibition of enzyme activity.
Reagents. Antibodies W02, G2-10, and G2-11 were obtained from Dr. Konrad Beyreuther (University of Heidelberg, Heidelberg, Germany). W02 recognizes residues 5-8 of Aβ peptide, while G2-10 and G2-11 recognize the specific C-terminal structure of Aβ 40 and Aβ42, respectively. Biotin-4G8 was purchased from Senetec (St. Louis, Mo.). All tissue culture reagents used in this work were from Life Technologies, Inc., unless otherwise specified. Pepstatin A was purchased from Roche Molecular Biochemicals; DFK167 was from Enzyme Systems Products (Livermore, Calif.).
cDNA Constructs, Tissue Culture, and Cell Line Construction. The construct SPC99-Ion, which contains the first 18 residues and the C-terminal 99 amino acids of APP carrying the London mutation, has been described (Zhang, L., Song, L., and Parker, E. (1999) J. Biol. Chem. 274, 8966-8972). Upon insertion into the membrane, the 17 amino acid signal peptide is processed, leaving an additional leucine at the N-terminus of Aβ. SPC99-Ion was cloned into the pcDNA4/TO vector (Invitrogen) and transfected into 293 cells stably transfected with pcDNA6/TR, which is provided in the T-REx system (Invitrogen). The transfected cells were selected in Dulbecco's modified Eagle's media (DMEM) supplemented with 10% fetal bovine serum, 100 units/mL penicillin, 100 µg/mL streptomycin, 250 µg/mL zeocin, and 5 µg/mL blasticidin (Invitrogen). Colonies were screened for Aβ production by inducing C99 expression with […] tetracycline for 16-20 h and analyzing conditioned media with a sandwich immunoassay (see below). One of the clones, designated as pTRE.15, was used in these studies.
Membrane Preparation. C99 expression in cells was induced with […] tetracycline for 20 h. The cells were pretreated with […] 12-myristate 13-acetate (PMA) and […] brefeldin A (BFA) for 5-6 h at 37° C. before harvesting. The cells were washed 3 times with cold phosphate-buffered saline (PBS) and harvested in buffer A containing 20 mM Hepes (pH 7.5), 250 mM sucrose, 50 mM KCl, 2 mM EDTA, 2 mM EGTA, and Complete protease inhibitor tablets (Roche Molecular Biochemicals). The cell pellets were flash-frozen in liquid nitrogen and stored at −70 C before use.
To make membranes, the cells were resuspended in buffer A and lysed in a nitrogen bomb at 600 psi. The cell lysate was centrifuged at 1500 g for 10 min to remove nuclei and large cell debris. The supernatant was centrifuged at 100000 g for 1 h. The membrane pellet was resuspended in buffer A plus 0.5 M NaCl, and the membranes were collected by centrifugation at 200000 g for 1 h. The salt-washed membrane pellet was washed again in buffer A and centrifuged at 100000 g for 1 h. The final membrane pellet was resuspended in a small volume of buffer A using a Teflon-glass homogenizer. The protein concentration was determined, and membrane aliquots were flash-frozen in liquid nitrogen and stored at −70° C.
γ-Secretase Reaction and AβAnalysis. To measure γ-secretase activity, membranes were incubated at 37° C. for 1 h in 50 μL of buffer containing 20 mM Hepes (pH 7.0) and 2 mM EDTA. At the end of the incubation, Aβ 40 and Aβ 42 were measured using an electrochemiluminescence (ECL)-based immunoassay. Aβ 40 was identified with antibody pairs TAG-G2-10 and biotin-W02, while Aβ 42 was identified with TAG-G2-11 and biotin-4G8. The ECL signal was measured using an ECL-M8 instrument (IGEN International, Inc.) according to the manufacturer's instructions. The data presented were the means of the duplicate or triplicate measurements in each experiment. The characteristics of γ-secretase activity described were confirmed using more than five independent membrane preparations.

Row | IC50 [nM] | SMILES
1 | 24.5 | O=C(O)CC1CCN(C(=O)OC2([C@H]3COC[C@@H](C4CC4)N3S(=O)(=O)c3ccc(Cl)cc3)CC2)CC1 [Example 47]
2 | 5.2 | C[C@@H]1OC[C@H](C2(OC(=O)N3CC[C@@H](O)C3)CC2)N(S(=O)(=O)c2ccc(Cl)cc2)[C@@H]1C1CC1 [Example 69]
3 | 3.9 | CC(C)[C@@H]1COC[C@H](C2(OC(=O)N3CCN(C(C)(C)CO)CC3)CC2)N1S(=O)(=O)c1ccc(Cl)cc1 [Example 78]
4 | 6.7 | C[C@H]1N(S(=O)(=O)c2ccc(Cl)cc2)[C@@H](C2(OC(=O)N3CCC(C(N)=O)CC3)CC2)COC1(C)C [Example 88]
5 | 2.1 | CC(C)(CO)N1CCN(C(=O)OC2(C3COCC(CC4CC4)N3S(=O)(=O)c3ccc(Cl)cc3)CC2)CC1 (stereo not shown) [Example 94, 4-(2-Hydroxy-1,1-dimethyl-ethyl)-piperazine-1-carboxylic acid 1-[4-(4-chloro-benzenesulfonyl)-5-cyclopropylmethyl-morpholin-3-yl]-cyclopropyl ester]
6 | 3.6 | O=C(OC1([C@H]2COC[C@@H](CC3CC3)N2S(=O)(=O)c2ccc(Cl)cc2)CC1)N1CC2CC1CN2CCO (stereo partly shown) [Example 98]
7 | 5.7 | CN1CCN(C(=O)OC2([C@H]3COC[C@@H](CC4CC4)N3S(=O)(=O)c3ccc(Cl)cc3)CC2)CC1=O [Example 110]
8 | 4.2 | CN1CCCN(C(=O)OC2([C@H]3COC[C@@H](CC4CC4)N3S(=O)(=O)c3ccc(Cl)cc3)CC2)CC1 [Example 122]

More lines, now with the values behind:

Row | SMILES | IC50 [nM]
9 | O=C(CC1([C@H]2COC[C@@H](C3CC3)N2S(=O)(=O)c2ccc(Cl)cc2)CC1)N1C2CCC1CC(N1CCCCC1)C2 (single isomer, unassigned) [Example 142] | 12.4
10 | O=C(OC[C@H]1COC[C@@H](c2cc(F)cc(F)c2)N1S(=O)(=O)c1ccc(Cl)cc1)N1CCC(N2CCCCC2)CC1 [Example 2] | 6.8
11 | CCC[C@@H]1COC[C@H](C2(OC(=O)N3CC4CCC(C3)N4CCO)CC2)N1S(=O)(=O)c1ccc(Cl)cc1 [Example 15] | 3.6
12 | CC(C)(CO)N1CCN(C(=O)OC2(C3COCC(c4cc(F)cc(F)c4)N3S(=O)(=O)c3ccc(Cl)cc3)CC2)CC1 (stereo not shown) [Example 16, 4-(2-Hydroxy-1,1-dimethyl-ethyl)-piperazine-1-carboxylic acid 1-[4-(4-chloro-benzenesulfonyl)-5-(3,5-difluoro-phenyl)-morpholin-3-yl]-cyclopropyl ester] | 1.4
13 | O=C(OC[C@H]1COC[C@@H](C2CC2)N1S(=O)(=O)c1ccc(Cl)cc1)N1CCC(N2CCCCC2)CC1 [Example 30] | 11.1
14 | CC(C)(CO)N1CCN(C(=O)OC2(C3COCC(C4CC4)N3S(=O)(=O)c3ccc(Cl)cc3)CC2)CC1 (stereo not shown) [Example 35, 4-(2-Hydroxy-1,1-dimethyl-ethyl)-piperazine-1-carboxylic acid 1-[4-(4-chloro-benzenesulfonyl)-5-cyclopropyl-morpholin-3-yl]-cyclopropyl ester] | 9.5
15 | CCCC1(O)CCN(C(=O)OC2([C@H]3COC[C@@H](C4CC4)N3S(=O)(=O)c3ccc(Cl)cc3)CC2)C1 (stereo partly shown) [Example 36] | 13.3
16 | O=C(OC1([C@H]2COC[C@@H](C3CC3)N2S(=O)(=O)c2ccc(Cl)cc2)CC1)N1CC2CCC(C1)N2CCO [Example 43] | 7.9
17 | CN1CC2CCC(C1)N2C(=O)OC1([C@H]2COC[C@@H](C3CC3)N2S(=O)(=O)c2ccc(Cl)cc2)CC1 [Example 51] | 6.2
18 | CN(C)CC(=O)N1C2CCC1CN(C(=O)OC1([C@H]3COC[C@@H](C4CC4)N3S(=O)(=O)c3ccc(Cl)cc3)CC1)C2 [Example 59] | 8.9
19 | C[C@H]1OC[C@H](C2(OC(=O)N3CC4CCC(C3)N4CCO)CC2)N(S(=O)(=O)c2ccc(Cl)cc2)[C@@H]1C1CC1 [Example 75] | 0.9
20 | O=C(OC1([C@H]2COC[C@@H](CC3CC3)N2S(=O)(=O)c2ccc(Cl)cc2)CC1)N1CC2CCC(C1)N2CCO [Example 99] | 0.9
21 | O=C(OC1([C@H]2COC[C@@H](CC3CC3)N2S(=O)(=O)c2cc(F)cc(F)c2)CC1)N1CC2CCC(C1)N2 [Example 135] | 4.2
22 | O=C(C(O)C1([C@H]2COC[C@@H](C3CC3)N2S(=O)(=O)c2ccc(Cl)cc2)CC1)N1CC2CCC(C1)N2 (stereo partly drawn) [Example 146, alpha-[1-[4-[(4-chlorophenyl)sulfonyl]-5(r)-cyclopropyl-3(s)-morpholinyl]cyclopropyl]-beta-oxo-3,8-diazabicyclo[3.2.1]octane-3-ethanol] | 10.1
